Experimental findings from BindingDB's records for PubMed 10496952 (University of Virginia, 1999) are described below.

Several values for one entry are separate records, joined by “and”; a condition that tells them apart may be missing. Equal values may be shown once.

Usually Ki stands for the dissociation constant of the complex between target and ligand, obtained from inhibition or displacement. Read a high Ki as weaker binding.

Assay [1] deals with T1, Adenosine receptor A3 (Homo sapiens, UniProt P0DMS8).
T1 sequence (P0DMS8 whole entry): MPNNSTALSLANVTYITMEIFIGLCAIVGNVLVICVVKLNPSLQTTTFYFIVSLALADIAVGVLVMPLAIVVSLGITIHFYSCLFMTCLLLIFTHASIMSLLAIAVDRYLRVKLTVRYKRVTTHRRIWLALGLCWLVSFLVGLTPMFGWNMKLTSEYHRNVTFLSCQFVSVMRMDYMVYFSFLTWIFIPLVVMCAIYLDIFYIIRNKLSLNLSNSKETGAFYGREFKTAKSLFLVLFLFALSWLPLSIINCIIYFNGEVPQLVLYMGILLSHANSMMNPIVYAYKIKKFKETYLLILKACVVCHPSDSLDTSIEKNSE

The target of assay [2] is T2, Adenosine receptor A2b (Homo sapiens, UniProt P29275).
T2 sequence (P29275 whole entry): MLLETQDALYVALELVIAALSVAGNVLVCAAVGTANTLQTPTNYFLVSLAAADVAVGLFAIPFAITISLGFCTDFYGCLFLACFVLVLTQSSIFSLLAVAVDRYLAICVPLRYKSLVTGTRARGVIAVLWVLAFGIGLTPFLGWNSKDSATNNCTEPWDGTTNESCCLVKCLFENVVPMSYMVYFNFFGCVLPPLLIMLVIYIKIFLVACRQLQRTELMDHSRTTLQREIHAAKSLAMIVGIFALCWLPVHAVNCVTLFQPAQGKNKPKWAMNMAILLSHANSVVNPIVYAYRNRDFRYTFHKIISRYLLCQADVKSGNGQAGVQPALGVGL

Assay [3] addresses T3, Adenosine receptor A1 (Homo sapiens, UniProt P30542).
T3 sequence (P30542 whole entry): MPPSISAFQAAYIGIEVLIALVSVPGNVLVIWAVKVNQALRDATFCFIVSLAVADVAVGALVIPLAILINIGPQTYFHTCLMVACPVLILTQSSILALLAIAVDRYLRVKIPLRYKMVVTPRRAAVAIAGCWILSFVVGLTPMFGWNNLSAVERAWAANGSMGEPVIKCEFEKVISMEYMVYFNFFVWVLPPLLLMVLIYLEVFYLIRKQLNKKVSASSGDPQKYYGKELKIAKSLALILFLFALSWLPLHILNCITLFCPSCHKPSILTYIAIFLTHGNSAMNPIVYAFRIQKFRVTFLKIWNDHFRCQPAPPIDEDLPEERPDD

In assay [4] the target is Adenosine receptor A2a (Homo sapiens, UniProt P29274).
Adenosine receptor A2a, sequence (P29274 whole entry): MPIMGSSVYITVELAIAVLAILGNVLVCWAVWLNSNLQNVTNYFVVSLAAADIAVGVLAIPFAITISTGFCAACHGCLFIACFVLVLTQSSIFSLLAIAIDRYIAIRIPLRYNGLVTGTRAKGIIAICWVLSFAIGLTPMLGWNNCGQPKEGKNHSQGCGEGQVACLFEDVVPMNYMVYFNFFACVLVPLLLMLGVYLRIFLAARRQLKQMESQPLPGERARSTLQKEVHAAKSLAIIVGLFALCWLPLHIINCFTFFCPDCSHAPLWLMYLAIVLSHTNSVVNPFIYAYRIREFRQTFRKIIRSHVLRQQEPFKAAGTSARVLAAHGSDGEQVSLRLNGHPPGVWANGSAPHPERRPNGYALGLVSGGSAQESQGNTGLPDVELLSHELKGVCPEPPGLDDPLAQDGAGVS

As for `CCCn1c(=O)c2nc[nH]c2n(CCC)c1=O`, the Ki in assay [1] was found to be 0.509 µM. This lies in the sub-micromolar range.
For `CCn1c(=O)c2[nH]c(-c3ccccc3)nc2n(CC)c1=O` [1,3-Diethyl-8-phenyl-3,7-dihydro-purine-2,6-dione], in assay [2], the affinity corresponds to a Ki of 0.0123 µM.
With `Nc1nc(Cl)nc2c1ncn2[C@@H]1O[C@H](CO)[C@H](O)C1O` (stereo partly specified) [2-Chloroadenosine], in assay [2], the Ki is greater than 10 µM.
Turning to `CCCn1c(=O)[nH]c(=O)c2[nH]cnc21` [3-Propylxanthine (enprofylline)], the Ki in assay [3] was greater than 10 µM.
`CCNC(=O)C(=O)Nc1nc(Nc2ccccc2)c2ncn([C@@H]3O[C@H](CO)[C@@H](O)[C@H]3O)c2n1` [AB-NECA] displayed a Ki in assay [2] greater than 10 µM.
Take `Nc1ccc(CCNc2nc(N)c3ncn(C4OC(CO)C(O)C4O)c3n2)cc1I` (stereo unspecified) [CAS_190964]: the Ki in assay [2] was greater than 10 µM.
`CCCn1c(=O)c2[nH]c(-c3ccc(C=CC(=O)O)cc3)nc2n(CCC)c1=O` [NSC_129447]: the affinity in assay [2], expressed as Ki, was 0.0516 µM.
In the case of `CCCn1c(=O)c2nc(-c3ccc(OCC(=O)O)cc3)[nH]c2n(Cc2ccc(N)c(I)c2)c1=O` [NSC_163889], the inhibitory constant (Ki) in assay [3] is 0.07 µM; in assay [4], 0.095 µM; in assay [1], 0.015 µM; in assay [2], 0.04 µM and 0.03 µM.
